Measured values published in patent publication US20260365670A1, “EGFR INHIBITORS AND USES THEREOF” (DIZAL (JIANGSU) PHARMACEUTICAL CO., LTD., priority 2022, published 2026).
Where two headings read alike, the source gives them in different places.

Legend:
[1] = biological target: T1, EGFR (C797S L858R) (Homo sapiens, UniProt P00533, C797S/L858R); assay: Inhibition of EGFR (C797S L858R) biochemical enzymatic activity (HTRF); conditions: EGFR L858-C797S, 1 mM ATP, 1 h, room temperature, read-out: IC50 (nM) @L858-C797S
T1 construct: purchased signalchem
T1 sequence (P00533 25-1210 C797S/L858R): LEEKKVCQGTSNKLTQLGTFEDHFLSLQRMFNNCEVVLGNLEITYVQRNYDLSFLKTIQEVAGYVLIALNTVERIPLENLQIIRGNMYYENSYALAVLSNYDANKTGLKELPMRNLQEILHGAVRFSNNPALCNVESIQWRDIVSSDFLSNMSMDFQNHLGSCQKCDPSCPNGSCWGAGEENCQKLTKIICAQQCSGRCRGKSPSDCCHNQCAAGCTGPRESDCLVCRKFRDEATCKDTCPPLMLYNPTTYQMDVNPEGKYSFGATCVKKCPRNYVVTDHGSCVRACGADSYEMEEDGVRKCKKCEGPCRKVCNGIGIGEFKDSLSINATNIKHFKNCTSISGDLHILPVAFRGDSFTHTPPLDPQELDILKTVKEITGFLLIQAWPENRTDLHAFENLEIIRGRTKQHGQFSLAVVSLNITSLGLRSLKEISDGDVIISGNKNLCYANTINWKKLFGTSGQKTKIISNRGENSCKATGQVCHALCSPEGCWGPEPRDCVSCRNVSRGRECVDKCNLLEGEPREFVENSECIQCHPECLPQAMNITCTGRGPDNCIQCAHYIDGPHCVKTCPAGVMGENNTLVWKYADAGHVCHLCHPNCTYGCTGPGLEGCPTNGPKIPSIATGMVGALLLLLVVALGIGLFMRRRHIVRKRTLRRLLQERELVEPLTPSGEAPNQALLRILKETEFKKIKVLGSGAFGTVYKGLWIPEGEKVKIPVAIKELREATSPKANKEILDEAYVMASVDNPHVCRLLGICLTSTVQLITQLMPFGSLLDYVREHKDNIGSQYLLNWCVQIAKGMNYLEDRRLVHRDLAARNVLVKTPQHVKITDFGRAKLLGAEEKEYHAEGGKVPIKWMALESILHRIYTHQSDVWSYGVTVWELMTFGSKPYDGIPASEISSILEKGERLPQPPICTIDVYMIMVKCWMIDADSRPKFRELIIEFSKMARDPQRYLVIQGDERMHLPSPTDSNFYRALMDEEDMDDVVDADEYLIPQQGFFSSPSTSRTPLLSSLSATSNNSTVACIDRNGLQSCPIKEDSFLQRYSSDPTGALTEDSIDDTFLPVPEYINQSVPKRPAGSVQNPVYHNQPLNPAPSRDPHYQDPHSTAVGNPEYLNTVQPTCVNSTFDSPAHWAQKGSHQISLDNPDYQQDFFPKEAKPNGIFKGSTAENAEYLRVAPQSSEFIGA
Method in brief: (§1)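 Following 1 h at room temperature with titrated compound, 1 mM ATP and 1 μM biotin-TK peptide (Mg2+/Mn2+, CHAPS, DTT, 0.5% DMSO buffer), EDTA-containing detection reagent terminated each enzyme reaction. Time-resolved fluorescence (ex 320, em 665/615 nm) ratio tracked activity. IC50 values came from four-parameter fits.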

[2] = biological target: T2, EGFR L858R/T790M (Homo sapiens, UniProt P00533, L858R/T790M); assay: Inhibition of EGFR L858R/T790M biochemical enzymatic activity (HTRF); conditions: EGFR L858R-T790M, 1 mM ATP, 1 h, room temperature, read-out: IC50 (nM) @L858R-T790M
T2 construct: purchased Carna Bio
T2 sequence (P00533 25-1210 T790M/L858R): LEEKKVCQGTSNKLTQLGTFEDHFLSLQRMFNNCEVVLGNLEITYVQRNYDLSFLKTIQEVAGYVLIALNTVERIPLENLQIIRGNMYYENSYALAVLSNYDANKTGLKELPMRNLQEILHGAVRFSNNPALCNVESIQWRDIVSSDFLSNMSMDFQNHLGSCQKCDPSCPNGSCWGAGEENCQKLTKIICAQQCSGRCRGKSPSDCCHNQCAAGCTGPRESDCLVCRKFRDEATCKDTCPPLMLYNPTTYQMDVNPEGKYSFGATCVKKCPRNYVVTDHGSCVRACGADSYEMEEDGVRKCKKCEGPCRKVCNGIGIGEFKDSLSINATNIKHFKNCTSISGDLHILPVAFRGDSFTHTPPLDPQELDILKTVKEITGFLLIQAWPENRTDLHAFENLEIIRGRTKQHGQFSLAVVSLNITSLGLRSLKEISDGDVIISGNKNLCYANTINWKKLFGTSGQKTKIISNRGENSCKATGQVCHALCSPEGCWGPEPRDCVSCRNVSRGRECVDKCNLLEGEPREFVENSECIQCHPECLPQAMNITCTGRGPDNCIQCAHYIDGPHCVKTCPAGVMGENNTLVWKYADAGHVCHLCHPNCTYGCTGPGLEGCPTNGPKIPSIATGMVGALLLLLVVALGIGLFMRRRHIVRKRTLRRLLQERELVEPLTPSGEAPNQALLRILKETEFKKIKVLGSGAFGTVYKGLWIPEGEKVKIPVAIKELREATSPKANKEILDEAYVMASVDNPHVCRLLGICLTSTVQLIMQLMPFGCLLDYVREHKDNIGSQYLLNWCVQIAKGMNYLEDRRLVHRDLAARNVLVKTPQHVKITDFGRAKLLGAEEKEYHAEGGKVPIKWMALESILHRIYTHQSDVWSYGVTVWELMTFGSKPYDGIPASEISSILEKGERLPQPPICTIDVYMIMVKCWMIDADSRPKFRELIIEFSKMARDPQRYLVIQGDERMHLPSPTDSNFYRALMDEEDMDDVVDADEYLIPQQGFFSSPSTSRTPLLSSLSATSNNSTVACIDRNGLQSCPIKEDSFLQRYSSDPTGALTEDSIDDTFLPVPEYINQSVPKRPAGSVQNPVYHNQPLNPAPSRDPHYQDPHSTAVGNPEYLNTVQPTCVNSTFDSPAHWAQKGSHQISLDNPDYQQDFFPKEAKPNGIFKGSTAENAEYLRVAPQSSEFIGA
Method in brief: as §1

[3] = biological target: T3, EGFR Exon19Del/T790M (Homo sapiens, UniProt P00533, DEL746-750/T790M); assay: Inhibition of EGFR Exon19Del/T790M biochemical enzymatic activity (HTRF); conditions: EGFR Del19-T790M, 1 mM ATP, 1 h, room temperature, read-out: IC50 (nM) @Del19-T790M
T3 construct: purchased Carna Bio
T3 sequence (P00533 with tags, fused parts or gaps DEL746-750/T790M limits assumed): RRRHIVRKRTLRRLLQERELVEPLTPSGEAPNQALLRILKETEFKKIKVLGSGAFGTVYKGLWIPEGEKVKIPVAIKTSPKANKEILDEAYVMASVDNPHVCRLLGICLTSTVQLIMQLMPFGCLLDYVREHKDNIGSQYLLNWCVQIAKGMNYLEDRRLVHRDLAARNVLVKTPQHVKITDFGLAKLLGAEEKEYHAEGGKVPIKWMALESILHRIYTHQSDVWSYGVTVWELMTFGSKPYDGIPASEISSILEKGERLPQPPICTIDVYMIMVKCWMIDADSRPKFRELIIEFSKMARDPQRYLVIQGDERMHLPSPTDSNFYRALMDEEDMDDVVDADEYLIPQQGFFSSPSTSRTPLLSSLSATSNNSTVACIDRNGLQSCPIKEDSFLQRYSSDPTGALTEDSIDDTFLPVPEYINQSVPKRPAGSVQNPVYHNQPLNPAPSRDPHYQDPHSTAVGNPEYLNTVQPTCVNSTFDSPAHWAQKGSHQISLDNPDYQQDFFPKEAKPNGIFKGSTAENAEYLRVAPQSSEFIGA
Method in brief: as §1

[4] = biological target: T4, EGFR[T790M/C797S/d746-750] (Homo sapiens, UniProt P00533, C797S/DEL746-750/T790M); assay: Inhibition of EGFR[T790M/C797S/d746-750] biochemical enzymatic activity (HTRF); conditions: EGFR T790M-C797S-Del19, 1 mM ATP, 1 h, room temperature, read-out: IC50 (nM) @T790M - C797S - Del19
T4 construct: purchased Carna Bio
T4 sequence (P00533 with tags, fused parts or gaps DEL746-750/T790M/C797S limits assumed): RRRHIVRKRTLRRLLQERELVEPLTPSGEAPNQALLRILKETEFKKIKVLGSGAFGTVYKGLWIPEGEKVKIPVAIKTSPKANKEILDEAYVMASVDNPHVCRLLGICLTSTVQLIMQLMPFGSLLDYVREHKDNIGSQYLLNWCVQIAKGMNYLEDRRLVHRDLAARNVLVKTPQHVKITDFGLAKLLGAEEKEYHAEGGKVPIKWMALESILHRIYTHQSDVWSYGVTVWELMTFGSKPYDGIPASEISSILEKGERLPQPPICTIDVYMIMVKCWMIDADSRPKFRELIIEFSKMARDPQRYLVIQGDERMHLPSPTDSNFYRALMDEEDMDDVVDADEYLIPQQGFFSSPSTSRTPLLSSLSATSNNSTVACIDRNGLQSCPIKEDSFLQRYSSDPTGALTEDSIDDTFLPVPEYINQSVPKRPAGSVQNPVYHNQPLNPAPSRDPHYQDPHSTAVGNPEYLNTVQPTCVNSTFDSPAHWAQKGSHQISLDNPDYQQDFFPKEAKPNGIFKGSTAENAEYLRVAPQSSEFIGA
Method in brief: as §1

[5] = biological target: T5, EGFR Exon19Del (Homo sapiens, UniProt P00533, DEL746-750); assay: Inhibition of EGFR Exon19Del biochemical enzymatic activity (HTRF); conditions: EGFR Del19, 1 mM ATP, 1 h, room temperature, read-out: IC50 @Del19
T5 construct: purchased Carna Bio
T5 sequence (P00533 with tags, fused parts or gaps DEL746-750 limits assumed): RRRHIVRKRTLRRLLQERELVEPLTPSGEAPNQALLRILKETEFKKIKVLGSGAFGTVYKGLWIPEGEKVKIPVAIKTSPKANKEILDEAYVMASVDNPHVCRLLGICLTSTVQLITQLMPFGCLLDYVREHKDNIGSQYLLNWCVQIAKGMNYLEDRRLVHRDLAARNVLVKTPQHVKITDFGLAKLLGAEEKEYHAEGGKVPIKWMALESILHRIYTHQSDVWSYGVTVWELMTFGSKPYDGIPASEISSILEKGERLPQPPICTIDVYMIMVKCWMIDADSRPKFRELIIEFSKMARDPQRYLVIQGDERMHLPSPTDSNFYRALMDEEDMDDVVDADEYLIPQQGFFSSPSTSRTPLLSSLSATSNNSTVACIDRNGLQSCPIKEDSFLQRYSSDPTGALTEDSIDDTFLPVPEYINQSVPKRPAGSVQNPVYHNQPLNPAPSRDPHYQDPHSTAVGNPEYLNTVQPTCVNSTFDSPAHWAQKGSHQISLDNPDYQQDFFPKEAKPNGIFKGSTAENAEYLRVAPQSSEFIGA
Method in brief: as §1

[6] = tested on: Ba/F3 cells expressing EGFR mutations; assay: Cell proliferation assay, Ba/F3 cells expressing EGFR mutations (CellTiter-Glo, 72 hours); assay type: cell-based; conditions: CellTiter-Glo
Method in brief: (§2)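 GI50 is the concentration giving 50% proliferation inhibition. Growth for this was normalised to a baseline viability reading taken when compound was added, and to DMSO wells. PC-9 (500 cells/well) and mutant-EGFR Ba/F3 (5000 cells/well) are treated after overnight seeding in RPMI1640-based medium.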

[7] = tested on: A-431; assay: Cell proliferation GI50, A-431 cells (Table 6); assay type: cell-based
[8] = biological target: T6, EGFR[T790M/C797S/L858R] (Homo sapiens, UniProt P00533, C797S/L858R/T790M); assay: Inhibition of EGFR[T790M/C797S/L858R] biochemical enzymatic activity (HTRF); conditions: EGFR T790M-C797S-L858R, 1 mM ATP, 1 h, room temperature, read-out: IC50 (nM) @T790M- C797S - L858R
T6 construct: purchased Carna Bio
Method in brief: as §1

[9] = tested on: PC-9; assay: Cell proliferation assay, PC-9 cells (CellTiter-Glo, 72 hours); assay type: cell-based; conditions: PC9 cells, CellTiter-Glo, read-out: PC9 GI50
Method in brief: as §2

[10] = biological target: T7, EGFR wild type (Homo sapiens, UniProt P00533); assay: Inhibition of EGFR wild type biochemical enzymatic activity (HTRF); conditions: EGFR WT, 1 mM ATP, 1 h, room temperature, read-out: IC50 (nM) @WT
T7 construct: purchased Carna Bio
Method in brief: as §1

[11] = biological target: T8, EGFR L858R (Homo sapiens, UniProt P00533, L858R); assay: Inhibition of EGFR L858R biochemical enzymatic activity (HTRF); conditions: 1 mM ATP, 1 h, room temperature, read-out: IC50 (nM) @L858R
T8 construct: purchased Carna Bio
Method in brief: as §1

[12] = biological target: T9, EGFR (d746-750 C797S) (Homo sapiens, UniProt P00533, C797S/DEL746-750); assay: Inhibition of EGFR (d746-750 C797S) biochemical enzymatic activity (HTRF); conditions: EGFR Del19-C797S, 1 mM ATP, 1 h, room temperature, read-out: IC50 (nM) @Del19-C797S
T9 construct: purchased signalchem
T9 sequence (P00533 with tags, fused parts or gaps DEL746-750/C797S limits assumed): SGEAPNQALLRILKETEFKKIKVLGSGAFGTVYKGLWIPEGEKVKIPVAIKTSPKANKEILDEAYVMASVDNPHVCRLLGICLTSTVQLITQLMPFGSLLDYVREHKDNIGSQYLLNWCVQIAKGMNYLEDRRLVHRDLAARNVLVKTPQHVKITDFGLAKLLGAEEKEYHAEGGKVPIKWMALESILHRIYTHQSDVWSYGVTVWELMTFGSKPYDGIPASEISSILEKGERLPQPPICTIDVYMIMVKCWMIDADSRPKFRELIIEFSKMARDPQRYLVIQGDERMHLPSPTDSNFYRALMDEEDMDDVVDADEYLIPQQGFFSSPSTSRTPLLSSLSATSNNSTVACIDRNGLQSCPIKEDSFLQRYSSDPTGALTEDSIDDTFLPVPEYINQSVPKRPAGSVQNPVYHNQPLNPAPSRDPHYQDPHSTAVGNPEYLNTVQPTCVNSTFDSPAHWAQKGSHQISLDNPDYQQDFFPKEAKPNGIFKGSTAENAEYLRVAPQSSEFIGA
Method in brief: as §1

[13] = BaF3 cells, EGFR DEL19-C797S, read-out: DEL19-C797S/BaF3 GI50
[14] = BaF3 cells, EGFR DEL19-T790-C797S, read-out: DEL19-T790-C797S/BaF3 GI50
[15] = BaF3 cells, EGFR L858R, read-out: L858R/BaF3 GI50
[16] = BaF3 cells, EGFR L858R-C797S, read-out: L858R-C797S/BaF3 GI50
[17] = BaF3 cells, EGFR L858R-T790-C797S, read-out: L858R-T790-C797S/BaF3 GI50
[18] = BaF3 cells, EGFR L858R-T790M, read-out: L858R-T790M/BaF3 GI50
[19] = EGFR DEL19-T790M, read-out: DEL19-T790M GI50
[20] = Homo sapiens, A-431, A-431 cells

Structure (SMILES): Cn1ncc2c1OCCN1CC3CCC(C3)(C1)n1c(nc3ccc(N4CCN(C5COC5)CC4)cc31)NC(=O)c1cc-2c(=O)n(C)c1 (single isomer, unassigned) [Example A71B]
- IC50 [1]: 20 nM
- IC50 [2]: 2.8 nM
- IC50 [3]: 2.5 nM
- IC50 [4]: 2.4 nM
- IC50 [5]: 1.8 nM
- GI50 [6, 13]: 0.66 nM
- GI50 [6, 14]: 2 nM
- GI50 [6, 15]: 2.9 nM
- GI50 [6, 16]: 4.2 nM
- GI50 [6, 17]: 2.2 nM
- GI50 [6, 18]: 8 nM
- GI50 [6, 19]: 1.9 nM
- GI50 ([7]; A-431 cells): 830 nM
- IC50 [8]: 2.9 nM
- GI50 [9]: 6.6 nM
- IC50 [10]: 319 nM
- IC50 [11]: 14 nM
- IC50 [12]: 1.3 nM

Structure (SMILES): CN(C)CC1(F)CN(c2ccc3nc4n(c3c2)C23CCC(CN(CCOc5c(cnn5C)-c5cc(cn(C)c5=O)C(=O)N4)C2)C3)C1 (single isomer, unassigned) [Example A72B]
- IC50 [1]: 2 nM
- IC50 [2]: 1.8 nM
- IC50 [3]: 2.4 nM
- IC50 [4]: 2.2 nM
- IC50 [5]: 1.8 nM
- GI50 [6, 13]: 0.51 nM
- GI50 [6, 14]: 0.58 nM
- GI50 [6, 15]: 0.88 nM
- GI50 [6, 16]: 1.9 nM
- GI50 [6, 17]: 0.51 nM
- GI50 [6, 18]: 1.6 nM
- GI50 [6, 19]: 0.51 nM
- GI50 [7, 20]: 731 nM
- IC50 [8]: 1.3 nM
- GI50 [9]: 2.1 nM
- IC50 [10]: 5.2 nM
- IC50 [11]: 2.4 nM
- IC50 [12]: 0.92 nM

Structure (SMILES): CN1CC2(CCN(c3ccc4nc5n(c4c3)C34CCC(CN(CCOc6c(cnn6C)-c6cc(cn(C)c6=O)C(=O)N5)C3)C4)C2)C1 (single isomer, unassigned) [Example A73B]
- IC50 [1]: 2.9 nM
- IC50 [2]: 1.9 nM
- IC50 [3]: 2.2 nM
- IC50 [4]: 2.1 nM
- IC50 [5]: 1.3 nM
- GI50 [6, 13]: 0.54 nM
- GI50 [6, 14]: 1.9 nM
- GI50 [6, 15]: 1.8 nM
- GI50 [6, 16]: 3.5 nM
- GI50 [6, 17]: 1.9 nM
- GI50 [6, 18]: 8 nM
- GI50 [6, 19]: 1.5 nM
- GI50 [7, 20]: 1070 nM
- IC50 [8]: 1.9 nM
- GI50 [9]: 7.3 nM
- IC50 [10]: 13 nM
- IC50 [11]: 4 nM
- IC50 [12]: 1.4 nM

Structure (SMILES): CN1CCCC12CN(c1ccc3nc4n(c3c1)C13CCC(CN(CCOc5c(cnn5C)-c5cc(cn(C)c5=O)C(=O)N4)C1)C3)C2 (single isomer, unassigned) [Example A76A]
- IC50 [1]: 4300 nM
- IC50 [2]: > 5000 nM
- IC50 [3]: > 5000 nM
- IC50 [4]: 4860 nM
- IC50 [5]: 450 nM
- GI50 [6, 13]: 272 nM
- GI50 [6, 14]: 564 nM
- GI50 [6, 15]: 536 nM
- GI50 [6, 16]: 304 nM
- GI50 [6, 17]: 980 nM
- GI50 [6, 18]: 942 nM
- GI50 [6, 19]: 584 nM
- GI50 ([7]; A-431 cells): 7930 nM
- IC50 [8]: > 5000 nM
- GI50 [9]: 810 nM
- IC50 [10]: > 5000 nM
- IC50 [11]: 2860 nM
- IC50 [12]: 503 nM

Structure (SMILES): CN1CCCC12CN(c1ccc3nc4n(c3c1)C13CCC(CN(CCOc5c(cnn5C)-c5cc(cn(C)c5=O)C(=O)N4)C1)C3)C2 (single isomer, unassigned) [Example A76B]
- IC50 [1]: 27 nM
- IC50 [2]: 7 nM
- IC50 [3]: 4.9 nM
- IC50 [4]: 4.4 nM
- IC50 [5]: 4.2 nM
- GI50 [6, 13]: 0.78 nM
- GI50 [6, 14]: 12 nM
- GI50 [6, 15]: 13 nM
- GI50 [6, 16]: 7.6 nM
- GI50 [6, 17]: 34 nM
- GI50 [6, 18]: 39 nM
- GI50 [6, 19]: 12 nM
- GI50 ([7]; A-431 cells): 1640 nM
- IC50 [8]: 6.9 nM
- GI50 [9]: 23 nM
- IC50 [10]: 206 nM
- IC50 [11]: 39 nM
- IC50 [12]: 3.5 nM

Structure (SMILES): CN1CCC2(CC1)CN(c1ccc3nc4n(c3c1)C13CCC(CN(CCOc5c(cnn5C)-c5cc(cn(C)c5=O)C(=O)N4)C1)C3)C2 (single isomer, unassigned) [Example A77B]
- IC50 [1]: 3.7 nM
- IC50 [2]: 3.8 nM
- IC50 [3]: 3.8 nM
- IC50 [4]: 3.6 nM
- IC50 [5]: 2.9 nM
- GI50 [6, 13]: 0.72 nM
- GI50 [6, 14]: 0.91 nM
- GI50 [6, 15]: 0.89 nM
- GI50 [6, 16]: 1.4 nM
- GI50 [6, 17]: 1.3 nM
- GI50 [6, 18]: 2.4 nM
- GI50 [6, 19]: 0.85 nM
- GI50 [7, 20]: 310 nM
- IC50 [8]: 3.4 nM
- GI50 [9]: 2.1 nM
- IC50 [10]: 7.3 nM
- IC50 [11]: 3.5 nM
- IC50 [12]: 2.1 nM

Structure (SMILES): CN1CCC2(C1)CN(c1ccc3nc4n(c3c1)C13CCC(CN(CCOc5c(cnn5C)-c5cc(cn(C)c5=O)C(=O)N4)C1)C3)C2 (single isomer, unassigned) [Example A78A]
- IC50 [1]: > 5000 nM
- IC50 [2]: > 5000 nM
- IC50 [3]: > 5000 nM
- IC50 [4]: 3750 nM
- IC50 [5]: 508 nM
- GI50 [6, 13]: 102 nM
- GI50 [6, 14]: 269 nM
- GI50 [6, 15]: 329 nM
- GI50 [6, 16]: 157 nM
- GI50 [6, 17]: 402 nM
- GI50 [6, 18]: 380 nM
- GI50 [6, 19]: 250 nM
- GI50 ([7]; A-431 cells): 3050 nM
- IC50 [8]: > 5000 nM
- GI50 [9]: 249 nM
- IC50 [10]: > 5000 nM
- IC50 [11]: 2040 nM
- IC50 [12]: 494 nM
